Data set [1] concerns the target Kinesin-like protein KIF20B (Homo sapiens, UniProt Q96Q89). As to the kind of experiment: Inhibition of basal ATPase activity of N-terminal His6-tagged/SUMO-fused human MPP1 motor domain (2 to 477 residues) expressed in Escherichia coli BL21 CodonPlus in presence of 0.1% Tween-20 by pyruvate kinase/lactate dehydrogenase-linked assay.
Data set [2] addresses T1, Chromosome-associated kinesin KIF4A (Homo sapiens) (UniProt O95239).
T1 sequence (whole entry): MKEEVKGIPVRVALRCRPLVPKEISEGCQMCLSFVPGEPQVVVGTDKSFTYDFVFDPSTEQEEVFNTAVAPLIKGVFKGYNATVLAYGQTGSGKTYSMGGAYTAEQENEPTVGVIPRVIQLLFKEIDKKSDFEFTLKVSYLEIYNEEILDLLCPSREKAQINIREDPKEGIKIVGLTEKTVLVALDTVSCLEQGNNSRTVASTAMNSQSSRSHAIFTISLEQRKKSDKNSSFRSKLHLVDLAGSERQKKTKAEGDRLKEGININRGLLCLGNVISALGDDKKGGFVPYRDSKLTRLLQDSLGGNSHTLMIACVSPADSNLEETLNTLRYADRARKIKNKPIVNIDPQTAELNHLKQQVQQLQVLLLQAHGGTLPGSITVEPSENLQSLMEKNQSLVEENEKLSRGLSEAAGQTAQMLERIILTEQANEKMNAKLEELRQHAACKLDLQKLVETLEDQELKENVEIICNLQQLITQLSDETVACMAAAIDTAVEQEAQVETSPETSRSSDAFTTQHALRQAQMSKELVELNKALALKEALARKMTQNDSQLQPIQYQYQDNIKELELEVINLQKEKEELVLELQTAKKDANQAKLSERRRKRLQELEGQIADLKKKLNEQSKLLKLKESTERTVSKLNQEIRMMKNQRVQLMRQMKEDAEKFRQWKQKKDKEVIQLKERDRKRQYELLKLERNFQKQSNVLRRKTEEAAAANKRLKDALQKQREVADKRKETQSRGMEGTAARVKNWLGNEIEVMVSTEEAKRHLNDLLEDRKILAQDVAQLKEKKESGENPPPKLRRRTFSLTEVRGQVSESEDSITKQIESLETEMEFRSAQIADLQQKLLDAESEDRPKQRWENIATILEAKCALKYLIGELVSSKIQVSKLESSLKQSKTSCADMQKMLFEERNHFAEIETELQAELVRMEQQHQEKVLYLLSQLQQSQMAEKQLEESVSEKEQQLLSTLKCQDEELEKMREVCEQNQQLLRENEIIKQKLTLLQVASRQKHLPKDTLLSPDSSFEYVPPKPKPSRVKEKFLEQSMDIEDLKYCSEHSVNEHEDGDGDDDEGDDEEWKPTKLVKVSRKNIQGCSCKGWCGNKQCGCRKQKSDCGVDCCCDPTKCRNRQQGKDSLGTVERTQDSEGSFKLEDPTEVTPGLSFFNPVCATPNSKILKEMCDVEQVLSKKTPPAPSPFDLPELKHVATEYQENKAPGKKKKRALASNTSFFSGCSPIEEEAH
As to the kind of experiment: Inhibition of basal ATPase activity of human Kif4A at 200 uM by pyruvate kinase/lactate dehydrogenase-linked assay.

The target in data set [3] is T2, Kinesin-like protein KIF23 (Homo sapiens) (UniProt Q02241).
T2 sequence (whole entry): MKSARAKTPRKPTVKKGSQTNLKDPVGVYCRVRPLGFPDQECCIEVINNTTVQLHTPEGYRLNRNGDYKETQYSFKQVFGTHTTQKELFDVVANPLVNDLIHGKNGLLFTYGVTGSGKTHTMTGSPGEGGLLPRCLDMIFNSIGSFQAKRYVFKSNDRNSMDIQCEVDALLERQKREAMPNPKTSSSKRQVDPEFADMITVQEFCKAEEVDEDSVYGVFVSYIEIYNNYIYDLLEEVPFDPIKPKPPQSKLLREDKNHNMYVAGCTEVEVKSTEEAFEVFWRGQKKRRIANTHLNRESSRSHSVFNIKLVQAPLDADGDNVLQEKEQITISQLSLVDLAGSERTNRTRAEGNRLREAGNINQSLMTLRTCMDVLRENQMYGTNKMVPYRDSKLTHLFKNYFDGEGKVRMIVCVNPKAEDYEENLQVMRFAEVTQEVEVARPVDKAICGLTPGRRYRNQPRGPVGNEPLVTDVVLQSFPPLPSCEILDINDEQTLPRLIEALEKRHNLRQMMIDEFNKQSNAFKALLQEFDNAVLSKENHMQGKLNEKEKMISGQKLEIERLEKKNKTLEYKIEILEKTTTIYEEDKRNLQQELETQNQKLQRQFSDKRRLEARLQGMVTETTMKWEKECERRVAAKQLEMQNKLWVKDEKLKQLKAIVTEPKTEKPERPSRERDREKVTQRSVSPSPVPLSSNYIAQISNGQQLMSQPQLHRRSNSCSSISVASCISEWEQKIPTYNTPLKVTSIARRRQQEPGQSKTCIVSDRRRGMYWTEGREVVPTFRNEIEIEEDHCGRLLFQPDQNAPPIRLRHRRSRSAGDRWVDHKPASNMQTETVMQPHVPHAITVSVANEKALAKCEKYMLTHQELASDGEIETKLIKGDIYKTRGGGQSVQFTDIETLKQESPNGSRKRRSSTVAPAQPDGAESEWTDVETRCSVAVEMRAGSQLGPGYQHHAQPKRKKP
As to the kind of experiment: Inhibition of microtubule-stimulated ATPase activity of human MKLP-1 at 200 uM by pyruvate kinase/lactate dehydrogenase-linked assay.

In data set [4] the target is T1, Chromosome-associated kinesin KIF4A (Homo sapiens). As to the kind of experiment: Inhibition of microtubule-stimulated ATPase activity of human Kif4A at 200 uM by pyruvate kinase/lactate dehydrogenase-linked assay.
Data set [5] in a line: Intrinsic clearance in human liver microsomes assessed per mg of protein at 3 uM after 5 to 60 mins by LC-MS/MS method. The format is ADME. Conditions: read-out: CLH. A general note: Liver microsomes are a subcellular fraction often used to study metabolism.

The source of these data is ChEMBL document CHEMBL3860026, “Depsidones from Lichens as Natural Product Inhibitors of M-Phase Phosphoprotein 1, a Human Kinesin Required for Cytokinesis” (J Nat Prod, 2016).

Structures are written as SMILES. Calls of active or inactive are those of the source. No cut-off for these calls is given here.

The inhibition is the drop in the measured response relative to a control, in per cent.

Chain of Kinesin-like protein KIF20B (Q96Q89 whole entry, the tested form may be a part): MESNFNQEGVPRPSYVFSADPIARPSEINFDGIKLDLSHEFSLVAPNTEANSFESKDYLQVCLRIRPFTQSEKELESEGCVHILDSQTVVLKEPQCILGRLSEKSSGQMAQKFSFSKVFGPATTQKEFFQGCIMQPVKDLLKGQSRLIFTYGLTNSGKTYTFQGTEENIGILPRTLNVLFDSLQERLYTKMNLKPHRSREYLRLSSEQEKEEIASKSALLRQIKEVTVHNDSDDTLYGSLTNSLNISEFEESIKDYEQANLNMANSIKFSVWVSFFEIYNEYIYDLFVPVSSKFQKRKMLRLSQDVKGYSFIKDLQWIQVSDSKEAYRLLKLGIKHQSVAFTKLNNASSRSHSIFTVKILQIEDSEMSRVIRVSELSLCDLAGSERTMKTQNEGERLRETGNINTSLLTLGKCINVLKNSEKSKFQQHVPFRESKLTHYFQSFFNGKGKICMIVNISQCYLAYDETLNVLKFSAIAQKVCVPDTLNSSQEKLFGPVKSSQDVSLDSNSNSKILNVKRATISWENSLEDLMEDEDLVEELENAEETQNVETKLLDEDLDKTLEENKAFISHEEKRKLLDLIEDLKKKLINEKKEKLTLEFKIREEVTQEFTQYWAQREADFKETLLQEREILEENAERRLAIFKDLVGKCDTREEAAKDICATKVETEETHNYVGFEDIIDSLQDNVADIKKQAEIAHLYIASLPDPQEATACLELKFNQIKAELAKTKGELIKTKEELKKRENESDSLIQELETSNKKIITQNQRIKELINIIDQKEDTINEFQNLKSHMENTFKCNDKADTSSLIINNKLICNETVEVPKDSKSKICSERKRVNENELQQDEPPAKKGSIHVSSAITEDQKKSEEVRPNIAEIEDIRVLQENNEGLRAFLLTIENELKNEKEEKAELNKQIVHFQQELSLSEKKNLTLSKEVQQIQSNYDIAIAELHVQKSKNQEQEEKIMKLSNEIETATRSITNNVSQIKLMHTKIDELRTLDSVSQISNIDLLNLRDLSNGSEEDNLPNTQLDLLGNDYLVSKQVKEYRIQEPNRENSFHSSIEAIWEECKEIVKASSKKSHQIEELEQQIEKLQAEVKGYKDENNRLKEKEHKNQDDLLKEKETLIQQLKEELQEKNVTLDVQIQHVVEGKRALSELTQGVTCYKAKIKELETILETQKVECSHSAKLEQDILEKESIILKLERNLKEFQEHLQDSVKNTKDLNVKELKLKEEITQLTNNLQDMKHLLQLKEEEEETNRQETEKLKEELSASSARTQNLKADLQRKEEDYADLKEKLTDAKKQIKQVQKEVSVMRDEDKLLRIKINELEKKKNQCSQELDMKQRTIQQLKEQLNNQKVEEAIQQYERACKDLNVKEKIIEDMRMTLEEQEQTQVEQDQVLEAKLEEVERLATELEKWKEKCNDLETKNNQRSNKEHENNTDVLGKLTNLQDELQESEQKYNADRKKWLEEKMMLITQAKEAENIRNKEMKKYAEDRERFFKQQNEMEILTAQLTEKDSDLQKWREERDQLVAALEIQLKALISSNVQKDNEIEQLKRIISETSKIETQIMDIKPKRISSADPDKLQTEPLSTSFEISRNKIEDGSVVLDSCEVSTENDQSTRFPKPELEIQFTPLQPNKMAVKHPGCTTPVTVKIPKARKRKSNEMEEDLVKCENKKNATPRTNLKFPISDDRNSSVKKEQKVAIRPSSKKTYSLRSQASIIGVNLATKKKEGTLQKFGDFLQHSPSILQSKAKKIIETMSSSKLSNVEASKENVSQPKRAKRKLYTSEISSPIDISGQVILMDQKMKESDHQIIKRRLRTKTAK

On to `CCCCCC(=O)Cc1cc(O)cc2c1C(=O)Oc1cc(O)c(C(=O)O)c(CCCCC)c1O2` [PHYSODIC ACID], for which, in data set [1], the inhibition entry was “Active”. Besides, the inhibition in data set [2], in data set [3] and in data set [4] was 40% each time. The microsomal CLint at 3 µM in data set [5] was 310 µL/min/mg.
